Results reported in US10479795B2 (Incyte Corporation, priority 2016, dated 2019).
Structures can show the parent of a compound that is named as a salt. Where two headings read alike, the source gives them in different places.

How the values were obtained:
[1] = tested on: Phosphorylated Ribosomal Protein S6 (RPS6); assay: THP-1 RPS6 ELISA Assay; assay type: cell-based, Human; settings: THP-1 cells, read-out: PI3Kγ_THP1_RPS6_ELISA IC50
Method in brief: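 Serum-starved THP-1 cells were preincubated with a concentration range of compound for 2 h at 37 °C, then stimulated with 10 nM MCP-1 for 15 min. Phospho-RPS6 in lysates was quantified by ELISA at 450 nm. IC50 came from percent inhibition versus log inhibitor concentration.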

[2] = biological target: PI3Kγ (p110γ) Recombinant Human Protein (Homo sapiens (Human), UniProt P48736); assay: PI3K-γ Scintillation Proximity Assay; assay type: biochemical; settings: read-out: PI3Kγ IC50
Method in brief: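 Recombinant human p110γ assayed at room temperature in 20 mM MOPS pH 6.7, 10 mM MgCl2, 5 mM DTT, 0.03% CHAPS, 2% DMSO, with 20 μM PIP2 and 2 μM ATP plus [γ-33P]ATP. Product captured on WGA SPA beads overnight and counted; IC50 fitted from % of solvent-control activity versus log inhibitor concentration.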

[3] = biological target: PI3Kδ (p110δ/p85α) Recombinant Human Protein (Homo sapiens (Human), UniProt O00329); assay: PI3Kδ Scintillation Proximity Assay; assay type: biochemical
Method in brief: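 Recombinant human p110δ/p85α (3.4 nM) with 20 μM PIP2 and 2 μM ATP plus [γ-33P]ATP, in 20 mM MOPS pH 6.7, 10 mM MgCl2, 5 mM DTT, 0.03% CHAPS, 2% DMSO; 120 min at room temperature. Product captured on WGA SPA beads, scintillation counted; IC50 from percent-of-control curves.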

PI3Kδ (p110δ/p85α) Recombinant Human Protein, sequence (O00329 whole entry): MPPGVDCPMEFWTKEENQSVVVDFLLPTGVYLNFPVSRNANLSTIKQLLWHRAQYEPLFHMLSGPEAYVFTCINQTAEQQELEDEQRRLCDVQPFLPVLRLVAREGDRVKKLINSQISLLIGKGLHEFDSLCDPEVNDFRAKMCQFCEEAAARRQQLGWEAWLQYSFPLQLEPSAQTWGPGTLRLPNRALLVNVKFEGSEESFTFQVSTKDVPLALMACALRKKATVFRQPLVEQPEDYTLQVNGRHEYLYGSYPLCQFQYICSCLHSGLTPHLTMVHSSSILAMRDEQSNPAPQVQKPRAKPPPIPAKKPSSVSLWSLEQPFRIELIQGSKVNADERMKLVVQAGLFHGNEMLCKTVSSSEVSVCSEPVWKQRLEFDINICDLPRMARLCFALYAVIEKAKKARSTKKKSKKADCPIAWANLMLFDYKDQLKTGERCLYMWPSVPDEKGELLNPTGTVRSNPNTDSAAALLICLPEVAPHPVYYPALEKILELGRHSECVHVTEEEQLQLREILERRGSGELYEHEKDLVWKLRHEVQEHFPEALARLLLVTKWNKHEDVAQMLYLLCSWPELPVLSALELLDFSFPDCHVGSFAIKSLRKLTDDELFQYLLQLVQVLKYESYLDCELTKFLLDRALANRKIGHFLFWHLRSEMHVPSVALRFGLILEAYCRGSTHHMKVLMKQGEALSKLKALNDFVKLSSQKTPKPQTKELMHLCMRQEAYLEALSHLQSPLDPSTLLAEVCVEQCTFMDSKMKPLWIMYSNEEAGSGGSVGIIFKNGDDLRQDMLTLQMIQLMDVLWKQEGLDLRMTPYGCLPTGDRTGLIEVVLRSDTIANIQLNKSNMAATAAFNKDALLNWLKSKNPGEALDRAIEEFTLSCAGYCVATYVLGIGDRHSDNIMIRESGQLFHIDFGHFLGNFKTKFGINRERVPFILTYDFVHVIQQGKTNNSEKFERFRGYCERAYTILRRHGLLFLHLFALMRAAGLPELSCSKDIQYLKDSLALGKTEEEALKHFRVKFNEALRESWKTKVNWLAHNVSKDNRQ
PI3Kδ (p110δ/p85α) Recombinant Human Protein, sequence (P27986 whole entry partner): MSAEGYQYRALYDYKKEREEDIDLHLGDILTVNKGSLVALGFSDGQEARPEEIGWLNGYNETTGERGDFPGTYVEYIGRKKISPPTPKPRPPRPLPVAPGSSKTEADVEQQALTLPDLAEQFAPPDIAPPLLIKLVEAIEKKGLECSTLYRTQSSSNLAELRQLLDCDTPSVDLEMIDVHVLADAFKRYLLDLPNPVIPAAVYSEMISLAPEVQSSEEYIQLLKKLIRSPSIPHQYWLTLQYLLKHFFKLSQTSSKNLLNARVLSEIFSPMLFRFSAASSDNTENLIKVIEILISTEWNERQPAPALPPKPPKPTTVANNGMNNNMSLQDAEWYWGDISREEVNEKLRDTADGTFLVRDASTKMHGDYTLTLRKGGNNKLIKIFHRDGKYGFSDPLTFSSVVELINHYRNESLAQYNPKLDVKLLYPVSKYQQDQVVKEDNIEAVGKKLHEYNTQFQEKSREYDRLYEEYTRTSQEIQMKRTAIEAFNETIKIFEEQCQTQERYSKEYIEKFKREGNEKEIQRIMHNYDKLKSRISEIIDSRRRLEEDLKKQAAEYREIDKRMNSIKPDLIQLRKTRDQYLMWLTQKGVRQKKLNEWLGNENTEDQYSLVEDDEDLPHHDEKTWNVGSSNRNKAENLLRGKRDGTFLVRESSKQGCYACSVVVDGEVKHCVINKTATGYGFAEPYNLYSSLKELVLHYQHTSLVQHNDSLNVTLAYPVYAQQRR
PI3Kγ (p110γ) Recombinant Human Protein, sequence (P48736 whole entry): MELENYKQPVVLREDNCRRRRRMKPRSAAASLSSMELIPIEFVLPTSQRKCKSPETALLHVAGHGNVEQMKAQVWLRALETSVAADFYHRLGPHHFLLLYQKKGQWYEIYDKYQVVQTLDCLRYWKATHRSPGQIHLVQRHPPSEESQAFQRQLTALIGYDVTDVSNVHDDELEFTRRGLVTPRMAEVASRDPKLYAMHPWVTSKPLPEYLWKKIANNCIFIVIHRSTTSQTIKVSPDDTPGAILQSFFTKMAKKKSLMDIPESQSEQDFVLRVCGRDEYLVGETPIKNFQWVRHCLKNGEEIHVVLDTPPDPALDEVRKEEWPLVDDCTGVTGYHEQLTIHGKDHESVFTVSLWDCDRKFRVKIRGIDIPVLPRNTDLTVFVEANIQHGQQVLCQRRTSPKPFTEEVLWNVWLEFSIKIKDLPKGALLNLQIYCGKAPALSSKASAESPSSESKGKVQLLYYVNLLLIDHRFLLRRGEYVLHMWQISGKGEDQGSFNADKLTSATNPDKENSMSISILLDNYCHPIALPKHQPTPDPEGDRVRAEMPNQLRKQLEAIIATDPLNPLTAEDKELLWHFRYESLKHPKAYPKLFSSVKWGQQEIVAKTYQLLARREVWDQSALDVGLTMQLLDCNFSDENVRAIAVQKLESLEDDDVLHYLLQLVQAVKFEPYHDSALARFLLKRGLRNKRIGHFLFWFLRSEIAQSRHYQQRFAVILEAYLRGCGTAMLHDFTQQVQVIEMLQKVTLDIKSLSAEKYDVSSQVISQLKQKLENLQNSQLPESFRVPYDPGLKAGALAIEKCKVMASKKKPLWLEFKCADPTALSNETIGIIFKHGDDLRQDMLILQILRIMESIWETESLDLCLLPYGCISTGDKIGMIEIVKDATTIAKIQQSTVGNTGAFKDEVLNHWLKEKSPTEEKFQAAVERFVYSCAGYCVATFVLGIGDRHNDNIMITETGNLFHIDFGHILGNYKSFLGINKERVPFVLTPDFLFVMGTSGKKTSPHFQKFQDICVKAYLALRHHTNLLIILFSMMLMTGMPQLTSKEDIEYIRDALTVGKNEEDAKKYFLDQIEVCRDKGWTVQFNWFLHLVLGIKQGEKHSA

SMILES	IC50 ([1]; Homo sapiens)	IC50 [2]	IC50 [3]	IC50 [1]
Cc1nc(N)c2ncc(-c3cc(S(=O)(=O)N[C@H]4CC[C@H](CC#N)OC4)c(Cl)cc3C)n2n1 [Example 389, 5-(4-amino-2-methylimidazo[2,1-f][1,2,4]triazin-7-yl)-2-chloro-N-((3S,6R)-6-(cyanomethyl)tetrahydro-2H-pyran-3-yl)-4-methylbenzenesulfonamide]	< 100 nM	< 100 nM	< 100 nM	–
O=C(O)C(F)(F)F.[2H]C([2H])([2H])c1ccc(S(=O)(=O)NC23CCC(CO)(C2)C3)cc1-c1cnc2c(N)nc(C(F)(F)F)cn12 [Example 390, 3-(8-Amino-6-(trifluoromethyl)imidazo[1,2-a]pyrazin-3-yl)-N-(4-(hydroxymethyl)bicyclo[2.1.1]hexan-1-yl)-4-(methyl-d3)benzenesulfonamide trifluoroacetate salt]	100 to 500 nM	< 100 nM	100 to 500 nM	–
O=C(O)C(F)(F)F.[2H]C([2H])([2H])c1ccc(S(=O)(=O)NC23CC(CO)(C2)C3)cc1-c1cnc2c(N)nc(C(F)(F)F)cn12 [Example 391, 3-(8-Amino-6-(trifluoromethyl)imidazo[1,2-a]pyrazin-3-yl)-N-(3-(hydroxymethyl)bicyclo[1.1.1]pentan-1-yl)-4-(methyl-d3)benzenesulfonamide trifluoroacetate salt]	< 100 nM	< 100 nM	100 to 500 nM	–
N#CC12CCC(NS(=O)(=O)c3cc(-c4cnc5c(N)nc(C(F)(F)F)cn45)ccc3Cl)(C1)C2 [Example 392, 5-(8-Amino-6-(trifluoromethyl)imidazo[1,2-a]pyrazin-3-yl)-2-chloro-N-(4-cyanobicyclo[2.1.1]hexan-1-yl)benzenesulfonamide trifluoroacetate salt]	100 to 500 nM	< 100 nM	< 100 nM	–
Nc1nc(C(F)(F)F)cn2c(-c3cc(S(=O)(=O)NC45CCC(CO)(C4)C5)ccc3Cl)cnc12 [Example 393, 3-(8-Amino-6-(trifluoromethyl)imidazo[1,2-a]pyrazin-3-yl)-4-chloro-N-(4-(hydroxymethyl)bicyclo[2.1.1]hexan-1-yl)benzenesulfonamide]	100 to 500 nM	< 100 nM	500 to 2000 nM	–
Nc1nc(C(F)(F)F)cn2c(-c3cccc(S(=O)(=O)NC45CCC(CO)(C4)C5)c3)cnc12 [Example 394, 3-(8-Amino-6-(trifluoromethyl)imidazo[1,2-a]pyrazin-3-yl)-N-(4-(hydroxymethyl)bicyclo[2.1.1]hexan-1-yl)benzenesulfonamide trifluoroacetate salt]	100 to 500 nM	< 100 nM	100 to 500 nM	–
N#CC12CCC(NS(=O)(=O)c3cccc(-c4cnc5c(N)nc(C(F)(F)F)cn45)c3)(C1)C2 [Example 395, 3-(8-Amino-6-(trifluoromethyl)imidazo[1,2-a]pyrazin-3-yl)-N-(4-cyanobicyclo[2.1.1]hexan-1-yl)benzenesulfonamide trifluoroacetate salt]	100 to 500 nM	< 100 nM	100 to 500 nM	–
N#CC12CCC(NS(=O)(=O)c3cc(-c4cnc5c(N)nc(C(F)(F)F)cn45)ccc3F)(C1)C2 [Example 396, 5-(8-Amino-6-(trifluoromethyl)imidazo[1,2-a]pyrazin-3-yl)-N-(4-cyanobicyclo[2.1.1]hexan-1-yl)-2-fluorobenzenesulfonamide trifluoroacetate salt]	500 to 1000 nM	< 100 nM	100 to 500 nM	–
Cc1c(F)cc(S(=O)(=O)NC23CCC(C#N)(C2)C3)cc1-c1cnc2c(N)nc(C(F)(F)F)cn12 [Example 397, 3-(8-Amino-6-(trifluoromethyl)imidazo[1,2-a]pyrazin-3-yl)-N-(4-cyanobicyclo[2.1.1]hexan-1-yl)-5-fluoro-4-methylbenzenesulfonamide trifluoroacetate salt]	< 100 nM	< 100 nM	100 to 500 nM	–
Nc1nc(C(F)(F)F)cn2c(-c3ccc(F)c(S(=O)(=O)NC45CCC(CO)(C4)C5)c3)cnc12 [Example 398, 5-(8-Amino-6-(trifluoromethyl)imidazo[1,2-a]pyrazin-3-yl)-2-fluoro-N-(4-(hydroxymethyl)bicyclo[2.1.1]hexan-1-yl)benzenesulfonamide trifluoroacetate salt]	500 to 1000 nM	< 100 nM	100 to 500 nM	–
Nc1nc(C(F)(F)F)cn2c(-c3ccc(Cl)c(S(=O)(=O)NC45CCC(CO)(C4)C5)c3)cnc12 [Example 399, 5-(8-Amino-6-(trifluoromethyl)imidazo[1,2-a]pyrazin-3-yl)-2-chloro-N-(4-(hydroxymethyl)bicyclo[2.1.1]hexan-1-yl)benzenesulfonamide trifluoroacetate salt]	> 1000 nM	< 100 nM	< 100 nM	–
Cc1cc(C)c(S(=O)(=O)NC23CCC(CO)(C2)C3)cc1-c1cnc2c(N)nc(C(F)(F)F)cn12 [Example 400, 5-(8-Amino-6-(trifluoromethyl)imidazo[1,2-a]pyrazin-3-yl)-N-(4-(hydroxymethyl)bicyclo[2.1.1]hexan-1-yl)-2,4-dimethylbenzenesulfonamide trifluoroacetate salt]	< 100 nM	< 100 nM	< 100 nM	–
Cc1nc(N)c2ncc(-c3cc(S(=O)(=O)N[C@H]4CC[C@](C)(O)CC4)c(F)cc3C)n2n1 [Example 402, 5-(4-amino-2-methylimidazo[1,2-f][1,2,4]triazin-7-yl)-2-fluoro-N-((1r,4r)-4-hydroxy-4-methylcyclohexyl)-4-methylbenzenesulfonamide trifluoroacetate salt]	–	< 100 nM	100 to 500 nM	100 to 500 nM
Cc1nc(N)c2ncc(-c3cc(S(=O)(=O)NCC(C)(C)O)c(Cl)cc3C)n2n1 [Example 403, 5-(4-amino-2-methylimidazo[1,2-f][1,2,4]triazin-7-yl)-2-chloro-N-(2-hydroxy-2-methylpropyl)-4-methylbenzenesulfonamide trifluoroacetate salt]	–	< 100 nM	100 to 500 nM	< 100 nM
Cc1nc(N)c2ncc(-c3cc(S(=O)(=O)NC45CCC(CO)(CC4)OC5)cc(F)c3C)n2n1 [Example 404, 3-(4-amino-2-methylimidazo[1,2-f][1,2,4]triazin-7-yl)-5-fluoro-N-(1-(hydroxymethyl)-2-oxabicyclo[2.2.2]octan-4-yl)-4-methylbenzenesulfonamide trifluoroacetate salt]	–	< 100 nM	< 100 nM	< 100 nM
Cc1cc(F)c(S(=O)(=O)N[C@H]2CC[C@H](CC#N)OC2)cc1-c1cnc2c(N)nc(C(F)(F)F)cn12 [Example 405, 5-(8-amino-6-(trifluoromethyl)imidazo[1,2-a]pyrazin-3-yl)-N-((3S,6R)-6-(cyanomethyl)tetrahydro-2H-pyran-3-yl)-2-fluoro-4-methylbenzenesulfonamide trifluoroacetate salt]	< 100 nM	< 100 nM	100 to 500 nM	–
[2H]C([2H])([2H])c1ccc(S(=O)(=O)N[C@H]2CC[C@H](CC#N)OC2)cc1-c1cnc2c(N)nc(C(F)(F)F)cn12 [Example 406, 3-(8-amino-6-(trifluoromethyl)imidazo[1,2-a]pyrazin-3-yl)-N-((3S,6R)-6-(cyanomethyl)tetrahydro-2H-pyran-3-yl)-4-(methyl-d3)benzenesulfonamide]	< 100 nM	< 100 nM	< 100 nM	–
